Series [1] has as its system gastrin-17. The series can be described thus: Gastrin-17 stabilization by sulfone compounds in horse serum (Example 3). The class given is biochemical, human gastrin-17 (GAST_HUMAN) in horse serum. Conditions: for ability to stabilize gastrin-17 in serum / stabilizing effect on gastrin-17 compared with DMSO: 5% [v/v], horse serum, room temperature, 5 h and 24 h. As to the method: Gastrin-17 (GAST_HUMAN(77-92)[Pyr-77]amid) was solved in horse serum with a concentration of 2.0 mg/ml and diluted to 0.22 mg/mL.
This solution was spiked respectively to reach a concentration of gastrin-17 of 0.1 mg/ml in (a) horse serum with added 5% [v/v]H2O; (b) horse serum with added 5% [v/v] DMSO (CAS: 67-68-5); (c) horse serum added 5% [v/v] Sulfolane (CAS: 126-33-0); d) horse serum with added 5% [v/v]trimethylene sulfone (CAS: 5687-92-3); e) horse serum with added 5% [v/v]1,1-dioxoisothiazolidine (CAS: 5908-62-3); f) horse serum with added 5% [v/v]1,4-butanesultone (CAS: 1633-83-6); g) horse serum with added 5% [v/v]tetrahydro-2H-thiopyran-4-ol 1,1-dioxide (CAS: 194152-05-1); h) horse serum with added 5% [v/v]2-methyltetrahydrothiophene 1,1-dioxide (CAS: 1003-46-9); i) horse serum with added 5% [v/v]ethylmethylsulfone (CAS: 594-43-4). The samples were then stored/incubated at room temperature. Samples were taken after 0 h, 5 h and 24 h. The further experiment was performed as described in Example 1.

The conditions of series [2]: cited from earlier work; for stability against oxidation compared with DMSO: Wasmus S and Vielstich W, Electrochimica Acta 1993.
In series [3] the test system is gastrin-17. The series can be described thus: Gastrin-17 stability in horse serum with 5% additive (Example 1, HPLC-MS). The class given is biochemical, human gastrin-17 (GAST_HUMAN) in horse serum. The settings on record: for protection ability on gastrin-17: room temperature, 0 h, 5 h, 23 h. As to the method:
(§1) Gastrin-17 (GAST_HUMAN(77-92)[Pyr-77]amid) and MS Qual/Quant QC-Mix (Mat. No.: MSQC2, Sigma Aldrich, a peptide mix comprising peptides A, B and C as referred to herein) was solved in horse serum with a concentration of 2.0 mg/ml and diluted to 0.22 mg/mL.
(§2) This solution was spiked respectively to reach a final peptide concentration of 0.1 mg/ml in (a) horse serum with added 5% [v/v]H2O; (b) horse serum with added 5% [v/v] DMSO (CAS: 67-68-5); (c) horse serum with added 5% [v/v] Sulfolane (CAS: 126-33-0). The samples were stored at room temperature. Samples were taken at three times after spiking (0 h, 5 h and 23 h) and centrifuged with a Microcon-10 filter (Ultracel PL-10, Regenerated Cellulose 10,000 NMWL) for 10 min at 4 °C and 10,000 rpm. Afterwards the filtrate was separated by a liquid chromatography (HPLC) coupled with MS detector (QTOF Premier, Waters). The separation was done by a reverse phase liquid chromatography (Vydac 218TP C18, 5 μm, 2.1×150 mm, column temperature 50 °C) with a linear gradient to 100% of eluent B over 17 minutes. The eluent A was water with 0.025% [v/v]trifluoroacetic acid and eluent B was acetonitrile with 0.023% [v/v]trifluoroacetic acid. The quantification was done by using […]=1049.9 Da for Gastrin-17, [M+2H]^2+=671.8 Da for peptid A, [M+2H]^2+=751.4 Da for peptid B and [M+2H]^2+=802.9 Da for peptid C. Peptid A, B and C are exemplary peptides contained in the peptid-Mix MS Qual/Quant QC-Mix (Mat. No.: MSQC2, Sigma Aldrich). The peptide mix MS Qual/Quant QC-Mix (Mat. No.: MSQC2, Sigma Aldrich) contained peptides of a length of 4 to 26 amino acids.

Series [4] has as its system peptides A, B and C. Briefly: Stability of peptides A, B and C in horse serum with 5% additive (Example 1, HPLC-MS). The class given is biochemical. Conditions: for protection ability on different peptides (A, B, C): room temperature, 0 h, 5 h, 23 h. As to the method: as §1, §2
Series [5] concerns gastrin-17. The series can be described thus: Concentration dependence of gastrin-17 stabilization in horse serum (Example 2). The settings on record: for concentration dependence of stabilization, gastrin-17 / stabilization of gastrin-17: 1.25%, 2.5% and 5% (v/v); for stabilization of gastrin-17: room temperature, 0 h and 5 h. The class given is biochemical, human gastrin-17 (GAST_HUMAN) in horse serum. As to the method: (§3) Gastrin-17 (GAST_HUMAN(77-92)[Pyr-77]amid) and MS Qual/Quant QC-Mix (Mat. No.: MSQC2, Sigma Aldrich; comprises peptides A, B and C) was solved in horse serum with a concentration of 2.0 mg/ml and diluted to 0.22 mg/mL.
(§4) This solution was spiked respectively to reach a concentration of 0.1 mg/ml in (a) horse serum with added 5% [v/v] DMSO (CAS: 67-68-5); (b) horse serum with added 5% [v/v] Sulfolane (CAS: 126-33-0); c) horse serum with added 2.5% [v/v] DMSO (CAS: 67-68-5); d) horse serum with added 2.5% [v/v] Sulfolane (CAS: 126-33-0); e) horse serum with added 1.25% [v/v] DMSO (CAS: 67-68-5); f) horse serum with added 1.25% [v/v] Sulfolane (CAS: 126-33-0); The samples were stored at room temperature. A sample was taken 0 h and 5 h after spiking. The further experiment was conducted as described in Example 1.

In series [6] the test system is peptides A, B and C. The series can be described thus: Concentration dependence of stabilization of peptides A, B and C in horse serum (Example 2). The class given is biochemical. Conditions: for concentration dependence of stabilization, peptides A, B and C / stabilization of peptides A, B and C: 1.25%, 2.5% and 5% (v/v); for stabilization of peptides A, B and C: room temperature, 0 h and 5 h. As to the method:
as §3, §4

The mark [7] stands for this setting: 5% [v/v], especially after longer incubation (23 h).

Regarding `O=S1(=O)CCCN1` [1,1-dioxoisothiazolidine], the “ability to stabilize gastrin-17 in serum” value in the series with gastrin-17 [1] is on record as “have the ability to stabilize peptides”. Further, the “stability against oxidation compared with DMSO” value in series [2] was “more stable against oxidation than DMSO”.
`O=S1(=O)CCCCO1` [1,4-butanesultone]: in the series with gastrin-17 [1], the “ability to stabilize gastrin-17 in serum” value is recorded as “have the ability to stabilize peptides” and the “stabilizing effect on gastrin-17 compared with DMSO” value is recorded as “superior to the DMSO stabilizing effect”. For the same molecule, in series [2], the “stability against oxidation compared with DMSO” value is “more stable against oxidation than DMSO”.
Consider `C[S+](C)[O-]` [DMSO, dimethylsulfoxid, reference compound], for which the “protection ability on gastrin-17” value in the series with gastrin-17 [3] (5% [v/v]) is listed as “both exhibit protection ability”. Moreover, the “protection ability on different peptides (A, B, C)” value with peptides A, B and C [4] (5% [v/v]) is listed as “both exhibit protection ability”. Besides, in the series with gastrin-17 [5] (5 h), the “concentration dependence of stabilization, gastrin-17” value is given as “stabilization increased with the concentration”. In the series with gastrin-17 [5], the “stabilization of gastrin-17” value is on record as “stabilized each of the peptides”. Also, in the series with peptides A, B and C [6] (5 h), the “concentration dependence of stabilization, peptides A, B and C” value was “stabilization increased with the concentration”. Moreover, the “stabilization of peptides A, B and C” value with peptides A, B and C [6] was “stabilized each of the peptides”. Moreover, the oxidation instability entry in series [2] (background statement) is on record as “rather instable”.
With `O=S1(=O)CCCC1` [Sulfolane], the “protection of gastrin-17 compared with DMSO” value with gastrin-17 [3] (setting [7]) is reported as “exceeds the DMSO protection outcome”. In addition, the “protection ability on gastrin-17” value in the series on gastrin-17 [3] (5% [v/v]) is listed as “both exhibit protection ability”. Moreover, in the series with gastrin-17 [3] (FIG. 1, 5% [v/v] vs no additive and 5% DMSO), the “signal stability over time (MassSpec peak area), gastrin-17” value is given as “better signal stability over time”. In the series on peptides A, B and C [4] (setting [7]), the “protection of peptides A, B, C compared with DMSO” value is “exceeds the DMSO protection outcome”. Besides, the “protection ability on different peptides (A, B, C)” value with peptides A, B and C [4] (5% [v/v]) is given as “both exhibit protection ability”. Also, the “signal stability over time (MassSpec peak area), peptides A, B and C” value in the series on peptides A, B and C [4] (FIG. 2, 5% [v/v] vs no additive and 5% DMSO) is given as “better signal stability over time”. Besides, the “concentration dependence of stabilization, gastrin-17” value in the series with gastrin-17 [5] (5 h) was “stabilization increased with the concentration”. Further, the “stabilization of gastrin-17” value with gastrin-17 [5] is on record as “stabilized each of the peptides”. The “overall stabilization compared with DMSO, gastrin-17” value in the series on gastrin-17 [5] (1.25-5% (v/v), 5 h) is on record as “overall better peptide stabilization ability”. The “stability improvement (MassSpec peak area)” value in the series with gastrin-17 [5] (FIG. 3, 5% vs 2.5% and 1.25% sulfolane or DMSO, legend says only "Peptide") is “improves stability best”. In the series on peptides A, B and C [6] (5 h), the “concentration dependence of stabilization, peptides A, B and C” value was “stabilization increased with the concentration”. The “stabilization of peptides A, B and C” value with peptides A, B and C [6] is recorded as “stabilized each of the peptides”. For the same molecule, in the series on peptides A, B and C [6] (1.25-5% (v/v), 5 h), the “overall stabilization compared with DMSO, peptides A, B and C” value is reported as “overall better peptide stabilization ability”. Besides, in the series with gastrin-17 [1], the “ability to stabilize gastrin-17 in serum” value is “have the ability to stabilize peptides” and the “stabilizing effect on gastrin-17 compared with DMSO” value is listed as “superior to the DMSO stabilizing effect”. Besides, the “protection of gastrin peptide over a longer period compared with DMSO” value in the series on gastrin-17 [1] (ca. 24 h, similar concentrations like DMSO, serum derived degradation) was “can protect the Gastrin Peptide better over a longer period”. For the same molecule, the “stability against oxidation compared with DMSO” value in series [2] is recorded as “more stable against oxidation than DMSO”. Moreover, the “stability of Sulfolane compared with DMSO based upon oxidation” value in series [2] (no experiment described at the place) is reported as “more stable than DMSO based upon oxidation”.
As to `CCS(C)(=O)=O` [ethylmethylsulfone], in the series with gastrin-17 [1], the “ability to stabilize gastrin-17 in serum” value is “have the ability to stabilize peptides” and the “stabilizing effect on gastrin-17 compared with DMSO” value was “superior to the DMSO stabilizing effect”. In addition, the “stability against oxidation compared with DMSO” value in series [2] is on record as “more stable against oxidation than DMSO”.
Turning to `CC1CCCS1(=O)=O` (stereo not drawn) [methyltetrahydrothiophene 1,1-dioxide, 2-methyltetrahydrothiophene 1,1-dioxide], in the series with gastrin-17 [1], the “ability to stabilize gastrin-17 in serum” value is recorded as “have the ability to stabilize peptides” and the “stabilizing effect on gastrin-17 compared with DMSO” value is “superior to the DMSO stabilizing effect”. Further, the “stability against oxidation compared with DMSO” value in series [2] is “more stable against oxidation than DMSO”.
Take `O=S1(=O)CCC(O)CC1` [tetrahydro-2H-thiopyran-4-ol 1,1-dioxide]: in the series with gastrin-17 [1], the “ability to stabilize gastrin-17 in serum” value was “have the ability to stabilize peptides” and the “stabilizing effect on gastrin-17 compared with DMSO” value was “superior to the DMSO stabilizing effect”. Moreover, the “stability against oxidation compared with DMSO” value in series [2] is “more stable against oxidation than DMSO”.
Regarding `O=S1(=O)CCC1` [trimethylene sulfone], in the series on gastrin-17 [1], the “ability to stabilize gastrin-17 in serum” value is listed as “have the ability to stabilize peptides” and the “stabilizing effect on gastrin-17 compared with DMSO” value is recorded as “superior to the DMSO stabilizing effect”. The “stability against oxidation compared with DMSO” value in series [2] was “more stable against oxidation than DMSO”.

The record behind these values is patent US20260365991A1, “COMPOUNDS FOR STABILIZING PEPTIDES IN BIOLOGICAL SAMPLES” (Roche Diagnostics Operations, Inc., priority 2023, published 2026).
